The target in experiment [1] is T1, RORγ ligand binding domain (LBD) (Homo sapiens, UniProt P51449).
T1 construct: made in house; host or cells: E. coli BL-21 (BL3), vector pDEST15
T1 sequence (P51449 269-508 limits assumed): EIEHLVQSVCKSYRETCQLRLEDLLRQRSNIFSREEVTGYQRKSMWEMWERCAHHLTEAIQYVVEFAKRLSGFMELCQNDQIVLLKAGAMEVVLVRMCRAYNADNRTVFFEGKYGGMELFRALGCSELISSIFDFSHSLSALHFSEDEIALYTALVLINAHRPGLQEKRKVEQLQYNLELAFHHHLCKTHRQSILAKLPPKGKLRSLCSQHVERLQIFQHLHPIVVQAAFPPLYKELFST
As to the kind of experiment: TR-FRET Activity Assay (ligand sensing assay, RORγ-LBD / coactivator peptide interaction). It counts as biochemical. Put shortly:
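GST-RORγ LBD expressed in bacteria, 20–60 ng/well, with biotinylated coactivator peptide 200–600 nM, streptavidin-APC and Eu-anti-GST. Buffer: 20 mM Tris-HCl pH 6.8, 60 mM KCl, 1 mM DTT, 5 mM MgCl2, BSA; 1% DMSO. LANCE TR-FRET 665/615 nm ratio; IC50 from four-parameter logistic fit.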
Background: Time-resolved FRET reads energy transfer from a long-lived donor to a nearby acceptor.

The next experiment concerns the target T2, RORγ (UniProt P51449).
T2 construct: hRORg-LBD|aa259-518|NP_005051.2; hRORgt|aa1-497|NP_001001523 (RORg, t isoform, 497aa); mRORg-LBD|aa264-516|NP_035411
T2 sequence (P51449 1-518): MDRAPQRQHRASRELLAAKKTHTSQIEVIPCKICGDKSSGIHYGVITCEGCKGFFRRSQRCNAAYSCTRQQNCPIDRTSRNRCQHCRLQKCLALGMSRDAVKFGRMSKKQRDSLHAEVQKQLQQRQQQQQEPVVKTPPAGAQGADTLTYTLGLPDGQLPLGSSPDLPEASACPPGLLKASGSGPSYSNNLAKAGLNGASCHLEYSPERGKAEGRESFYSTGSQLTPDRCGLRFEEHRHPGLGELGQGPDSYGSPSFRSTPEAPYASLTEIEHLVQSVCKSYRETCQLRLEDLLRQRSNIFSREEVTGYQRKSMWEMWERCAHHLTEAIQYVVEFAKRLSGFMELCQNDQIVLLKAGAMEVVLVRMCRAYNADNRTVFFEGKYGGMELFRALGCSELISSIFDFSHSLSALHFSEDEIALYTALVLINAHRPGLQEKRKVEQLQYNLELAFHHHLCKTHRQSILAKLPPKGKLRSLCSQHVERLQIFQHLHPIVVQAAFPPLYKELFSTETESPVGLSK
The format is cell-based. Conditions: 293T cells, 16 h; for pIC50 (FF): firefly (FF) luciferase; for pIC50 (REN): renilla normalised (RENnorm) luciferase.

Usually IC50 stands for the concentration that inhibits the measured activity by half. A low value points to higher potency.

Structures are written as SMILES.

Take `Cc1c(C(=O)N[C@H]2C[C@H](C(=O)O)C2)c(C)n(-c2cc(C(C)(C)O)cc(C3(C)CC3)c2)c1CC1CCCCC1` [Example 16, trans-3-(5-(Cyclohexylmethyl)-1-(3-(2-hydroxypropan-2-yl)-5-(1-methylcyclopropyl)phenyl)-2,4-dimethyl-1H-pyrrole-3-carboxamido)cyclobutanecarboxylic acid]: the IC50 in experiment [1] is 1580 nM. Also, at RORγ, the “pIC50 (FF)” value amounted to 6.6 and the “pIC50 (REN)” value was 6.7.
Regarding `Cn1c(C(=O)NCCC(C)(C)C(=O)O)cc(-c2cc(C(C)(C)C)cc(C3(C)CC3)c2)c1CC1CCCCC1` [8/10], the IC50 in experiment [1] was 794 nM. Also, on RORγ, the “pIC50 (FF)” value is 7.4 and the “pIC50 (REN)” value was found to be 7.5.
Regarding `Cc1cc(-n2nc(C(=O)NC3CC3)cc2CC2CCCCC2)cc(C(C)(C)C)c1` [102/3], the IC50 in experiment [1] is 3160 nM. Besides, at RORγ, the “pIC50 (FF)” value came out at 5.7 and the “pIC50 (REN)” value was 6.1.
The matching figures for `Cn1c(C(=O)NCC2(O)CCS(=O)(=O)CC2)cc(-c2ccc(S(=O)(=O)NC(C)(C)C)c3ccccc23)c1CC1CCCCC1` [8/5]: 1000 nM, 7.6 and 7.6.

The values above are taken from patent US9458104B2 (priority 2012, dated 2016).
